Legend:
PC3 cells = test: Cell growth assay, trypan blue dye exclusion count; format: cell-based
Procedure: Cell Line and Cell Growth Assay. Human prostate cancer cell line PC-3 was procured from the American Type Cell Culture Collection (Manassas, Va.). Cells were grown in IMEM without phenol red (Invitrogen, Carlsbad, Calif.) with 10% fetal bovine serum, 2 mM glutamine, 100 U/mL penicillin G sodium, and 100 μg/mL streptomycin sulfate (Sigma, St. Louis, Mo.) in the presence of 5% CO2 at 37° C. For the cell growth experiment, PC-3 cells were seeded in 6-well plates in triplicate with an initial density of 2×10^3 cells per well. Twenty-four hours after seeding, the attached cells were treated with vehicle (DMSO) or 1, 5, 15, 30 and 60 μM compound. After another twenty-four hours, the cells were washed with 1×PBS, trypsinized and re-suspended in complete growth medium. Trypan blue (0.4%) was added to the cell suspension and both live and dead cells were counted using a hemocytometer.
Compounds 6-10 were screened for growth inhibition in PC-3 human prostate cancer cells using previously reported methods (Table 1; Sinha et al. The Prostate. 2006, 66, 1257-1265). […] This was unexpected, since the methyl moiety of mahanine is in the 3-position. Compound 9, with its GI50 value near that of the compound 6 series (compounds 6, 6a, 8) and a deprotected hydroxyl group in the 2-position, implies that whatever hindrance is imposed by a methyl in the 3-position can be partially overcome if steric bulk at the 2-position is reduced. Indeed, looking at the structure of mahanine, the restraint of the ether cycle may provide enough reduction of apparent bulk at the 2-position to moderate its methyl in the 3-position. Additionally, the ether ring system puts the equivalent of a methyl group in the 1-position, which could also be aiding in the low μM activity of mahanine, if the relatively lower values for the compound 6 series are any indication. Moreover, analyzing the structure of compound 10 based on the same criteria, the double-bonded carbon of the ether cycle in the 3-position along with bulk off the 2-position might explain its lesser growth inhibition when compared to mahanine, while the methyl in the 1-position still gives it better activity than compounds 7 and 7a.

RASSF1A = test: RT-PCR of RASSF1A mRNA in treated PC-3 cells; format: cell-based, human; conditions: 5 μM, 24 hours
Procedure: (§1) Representative photograph of an experiment repeated thrice. PC-3 cells were treated 24 hours with either 15 μM for compounds 6, 7, 7a, 8, 9, 10 or 5 μM for compound KED-4-69 (compound 6a) before RNA extraction and RT-PCR amplification.
(§2) Reverse Transcriptase-polymerase Chain Reaction (RT-PCR). From PC-3 cells incubated 24 hours with either 15 μM of compound 6, 7, 7a, 8, 9, 10 or 5 μM of KED-4-69 (compound 6a), RNA was extracted with TRIzol solution (Invitrogen, Carlsbad, Calif.) and genes of interest were amplified using 500 ng of total RNA reverse-transcribed to cDNA using a Superscript II kit (Invitrogen) with random hexamers. Human-specific primers were designed using the Primer Quest program and purchased from Integrated DNA Technologies, Inc. (Coralville, Iowa). Their sequences and product band sizes are: cyclin D1 forward primer 5′-[…]-3′ (SEQ ID NO:1), cyclin D1 reverse primer 5′-[…]-3′ (SEQ ID NO:2) (475 bp) and GAPDH forward primer: 5′-CCA […]-3′ (SEQ ID NO:3), GAPDH reverse primer: 5′-TCTAGACGGCAG GTCAGGTCCACC-3′ (SEQ ID NO:4) (598 bp). PCRs were initiated at 94° C. for 2 min, followed by 28 cycles of 94° C. for 1 min, 1 min annealing temperature, 72° C. for 1 min, and final extension at 72° C. for 5 min. The annealing temperature for cyclin D1 and GAPDH was 60° C. Primers and PCR conditions for RASSF1A are used as described by Rong et al. (Oncogene. 2004, 23, 8216-8230). After amplification, PCR products were separated on 1.5% agarose gels and visualized by ethidium bromide fluorescence using the Fuji LAS-1000 Imager. Images were captured and imported to Adobe Photoshop. Band intensities were quantified by using ImageJ software (NIH, Bethesda, Md.).
(§3) It has been reported that mRNA levels of RASSF1A correlate to its protein expression levels (Rong et al. Oncogene, 2004, 23: 8216-8230). To investigate the effects of the synthetic compounds on RASSF1A and cyclin D1 expression, levels of the respective mRNAs in treated cells compared to control were analyzed (FIG. 3). […] Because overexpression of cyclin D1 is associated with tumorigenicity and proliferation in a variety of tumors, including prostate cancers, this downregulation provides a cancer treatment method (Chen, Y. et al. Oncogene. 1998, 16, 1913-1920; Musgrove, E. A. et al. Proc. Natl. Acad. Sci. USA. 1994, 91, 8022-8026).

cyclin D1 = test: RT-PCR of cyclin D1 mRNA in treated PC-3 cells; format: cell-based, human; conditions: 5 μM, 24 hours
Procedure: as §1, §2, §3

wild-type Balb/c mice = test: Acute oral toxicity up-and-down procedure; format: in vivo
Procedure: Animals. Balb/c mice and athymic Balb/c nude mice were purchased from the National Cancer Institute (NCI). Animals were housed 4-6 per cage with microisolater tops and provided food (Furina mice chow) and water ad libitum. The light cycle was regulated automatically (12 hours light/dark cycle) and temperature was maintained at 23±1° C. All animals were allowed to acclimate to this environment for one week prior to experimental manipulations. The Georgetown University Animal Care and Use Committee approved all animal studies in accordance with the guidelines adopted by the National Institute of Health.
This provided an ample therapeutic index of >55 at a starting efficacy dose of 10 mg/kg. Athymic Balb/c nude mice with human prostate tumor xenografts were dosed via intraperitoneal injection with 10 mg/kg of compound 6a once a day every other day for 25 days. Control mice were dosed with vehicle alone. Compound 6a reduced tumor volume by roughly 40% compared to control over 25 days (FIG. 8).

COc1ccc2c(c1)[nH]c1c(C)c(OS(=O)(=O)c3cccc4c(N(C)C)cccc34)ccc12 [Compound 6a, 7-Methoxy-1-methyl-9H-carbazol-2-yl 5-(dimethylamino)naphthalene-1-sulfonate]
cytotoxicity compared to mahanine (PC3 cells): less cytotoxic than mahanine
GI50 (PC3 cells; Homo sapiens, PC-3, concentration for 50% growth inhibition in PC3 cells, 24 hours of treatment, mean ± SEM of three observations, read-out: GI50): 1500 ± 110 nM
increase in activity compared to mahanine in inhibition of growth of prostate cancer cells (PC3 cells; refers to Table 1): 5 fold
RASSF1A mRNA level versus control (RASSF1A): significant increase in RASSF1A
cyclin D1 mRNA level versus control (cyclin D1): corresponding decrease in cyclin D1
therapeutic index (wild-type Balb/c mice; 550 mg/kg without toxicity versus starting efficacy dose of 10 mg/kg): > 55
acute oral toxicity (wild-type Balb/c mice; wild-type Balb/c mice dosed up to 550 mg/kg, oral): no toxicity was observed

Source: patent publication US10457639B2, “Fluorescent regulators of RASSF1A expression and human cancer cell proliferation” (GEORGETOWN UNIVERSITY, priority 2008, dated 2019)
